Values joined by “and” are separate entries in the source; they are usually repeats but may differ in a detail not shown here. Equal values may be shown once.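 Assay format: 96-well plates, 48-hour exposure. GI50 marks 50% less growth. TGI denotes the concentration required for complete inhibition of growth.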
Legend:
Experiment in all cases: inhibition of tumour cell growth, NCI panel, 48 h
SW-620 colon = system: SW-620 colon
CAKI-1 renal = system: CAKI-1 renal
MCF7 breast = system: MCF7 breast
SK-MEL-28 melanoma = system: SK-MEL-28 melanoma
HCT-15 colon = system: HCT-15 colon
BT-549 breast = system: BT-549 breast
RPMI-8226 leukemia = system: RPMI-8226 leukemia
NCI-H522 lung = system: NCI-H522 lung
HT29 colon = system: HT29 colon
SF-268 CNS = system: SF-268 CNS

| SMILES | TGI (SW-620 colon) | TGI (CAKI-1 renal) | TGI (MCF7 breast) | TGI (SK-MEL-28 melanoma) | TGI (HCT-15 colon) | TGI (BT-549 breast) | TGI (RPMI-8226 leukemia) | TGI (NCI-H522 lung) | TGI (HT29 colon) | TGI (SF-268 CNS) | GI50 (MCF7 breast) | GI50 (HCT-15 colon) | GI50 (SW-620 colon) | GI50 (SK-MEL-28 melanoma) | GI50 (RPMI-8226 leukemia) | GI50 (NCI-H522 lung) | GI50 (HT29 colon) | GI50 (SF-268 CNS) |
| --- | --- | --- | --- | --- | --- | --- | --- | --- | --- | --- | --- | --- | --- | --- | --- | --- | --- | --- |
| O=C(O)C(=O)/C=C(\O)c1ccc(Br)cc1 | > 100 µM | > 100 µM | > 100 µM | > 100 µM | > 100 µM | > 100 µM | > 100 µM | > 100 µM | > 100 µM | > 100 µM |  |  |  |  |  |  |  |  |
| CCOc1ccc2c(c1)c(=O)c1c(NCCN(CC)CC)ccc3nnn2c31 | 31.5 µM | 41.6 µM | > 68.7 µM | > 55 µM | 48.2 µM | > 100 µM | > 65.1 µM | 27.8 µM | 32 µM | > 80.2 µM |  |  |  |  |  |  |  |  |
| O=C1C(=Cc2ccc(Cl)c(Cl)c2)C([O-])=C([P+](c2ccccc2)(c2ccccc2)c2ccccc2)C([O-])=C1[P+](c1ccccc1)(c1ccccc1)c1ccccc1 | 6.75 µM | 6.78 µM | 11.2 µM | 6.07 µM | 13.8 µM | 5.19 µM | 9.23 µM | 4.1 µM | 4.05 µM | 3.94 µM |  |  |  |  |  |  |  |  |
| COc1ccc(Nc2nc(N)c(C(=O)c3cccs3)s2)cc1 | > 100 µM | > 100 µM | 24.9 µM | > 95.7 µM | > 49.1 µM | > 100 µM | 21.7 µM | > 100 µM | > 41.4 µM | > 100 µM |  |  |  |  |  |  |  |  |
| N#CC(C#N)=C1C(=O)NC(N)=C1C#N | > 100 µM | > 100 µM | > 100 µM | > 100 µM | > 100 µM | > 100 µM | > 100 µM | > 100 µM | > 100 µM | > 100 µM |  |  |  |  |  |  |  |  |
| OC1C[C@H](c2ccccc2)C2(C(O)c3ccccc3C2O)[C@@H](c2ccccc2)C1 (stereo partly specified) | > 100 µM | > 100 µM | > 100 µM | > 100 µM | > 100 µM | > 100 µM | > 100 µM | > 100 µM | > 100 µM | > 100 µM |  |  |  |  |  |  |  |  |
| [N-]=[N+]=Nc1c([N+](=O)[O-])c(=O)n2c3c(cccc13)CCC2 | 13.9 µM | 27.9 µM | 27 µM | 16.3 µM | 17.8 µM | 32.7 µM | 11.5 µM | 4.58 µM | 36.1 µM | 21.3 µM |  |  |  |  |  |  |  |  |
| S=c1[nH]c2ccc(I)cc2c(=S)n1Cc1ccccc1 | 14.7 µM | > 100 µM | > 100 µM | > 100 µM | 23.3 µM | 27 µM | 12.1 µM | 16.5 µM | 38.9 µM | 25.3 µM |  |  |  |  |  |  |  |  |
| CCCCCCCCCCCCCC(=O)N(CCCCCCCCC)CC(O)C(O)C(OC1OC(CO)C(O)C(O)C1O)C(O)CO (stereo unspecified) | 36.5 µM | 30.6 µM | > 100 µM | 33.6 µM | 49.7 µM | 43.7 µM | 52.1 µM | 44.4 µM | 33.3 µM | 39.4 µM |  |  |  |  |  |  |  |  |
| CCOC(=O)C(NC(=O)OC(C)(C)C)C(=O)OCC | > 100 µM | > 100 µM | > 100 µM | > 100 µM | > 100 µM | > 100 µM | > 100 µM | > 100 µM | > 100 µM | > 100 µM |  |  |  |  |  |  |  |  |
| Cc1cn(S(=O)(=O)c2ccccc2)c2c(OCc3ccccc3)cc(NS(C)(=O)=O)cc12 | > 100 µM | > 100 µM | 27.3 µM | > 100 µM | > 100 µM | > 100 µM | > 63.7 µM | > 75.9 µM | 17.2 µM | > 77.9 µM |  |  |  |  |  |  |  |  |
| Brc1ccc2c(-c3csc(-c4c[nH]c5ccccc45)n3)c[nH]c2c1 | 30.1 µM | 33.4 µM | 37.1 µM | 31 µM | 28.5 µM | 37.4 µM | 46.6 µM | 32.2 µM | 29 µM | 34.5 µM | 16.7 µM | 15.2 µM |  |  |  |  |  |  |
| CN(C)/N=N/c1nc[nH]c1C(N)=O | > 1000 µM | 71.7 µM and 539 µM | > 1000 µM | > 1000 µM | > 1000 µM | > 1000 µM |  | 89.3 µM and > 779 µM | > 1000 µM | > 791 µM | 154 µM | 73.8 µM | 32.9 µM | 595 µM | 6.81 µM | 82 µM | 607 µM | 54.8 µM |
| Cn1c(O)c(C=Nc2ccccc2Cl)c(=O)n(C)c1=O | > 100 µM | > 100 µM | > 100 µM |  | 41.4 µM | > 100 µM | 51.7 µM | > 100 µM | > 100 µM | > 100 µM |  |  |  |  |  |  |  |  |
| CCOC(=O)/C=C(\C(=O)OCC)n1ccc(=O)[nH]c1=O | 7.85 µM | 3.52 µM | 23.9 µM | 33.4 µM | 21.5 µM | 30.7 µM | 34.4 µM | 2.12 µM | 31 µM | 42 µM |  |  |  |  |  |  |  |  |
| COc1ccc(N2NC(c3ccccc3)(c3ccccc3)C(C)C2=O)cc1 (stereo unspecified) | > 100 µM | > 100 µM | > 100 µM | > 100 µM | > 100 µM | > 100 µM | > 100 µM | > 100 µM | > 100 µM | > 100 µM |  |  |  |  |  |  |  |  |

| SMILES | TGI (SW-620 colon) | TGI (CAKI-1 renal) | TGI (MCF7 breast) | TGI (SK-MEL-28 melanoma) | TGI (HCT-15 colon) | TGI (BT-549 breast) | TGI (RPMI-8226 leukemia) | TGI (NCI-H522 lung) | TGI (HT29 colon) | TGI (SF-268 CNS) | GI50 (MCF7 breast) | GI50 (HCT-15 colon) | GI50 (SW-620 colon) | GI50 (SK-MEL-28 melanoma) | GI50 (RPMI-8226 leukemia) | GI50 (NCI-H522 lung) | GI50 (HT29 colon) | GI50 (SF-268 CNS) |
| --- | --- | --- | --- | --- | --- | --- | --- | --- | --- | --- | --- | --- | --- | --- | --- | --- | --- | --- |
| O=c1ccc2ccc(O)cc2o1 | > 100 µM | > 100 µM | > 100 µM | > 100 µM | > 100 µM | > 100 µM | > 100 µM | > 100 µM | > 100 µM | > 100 µM |  |  |  |  |  |  |  |  |
| C[C@H]1COC2=C1C(=O)C(=O)c1c2ccc2c1CCCC2(C)C | 34.5 µM | > 54.9 µM | 7.88 µM | 20.6 µM | 18.6 µM | 5.71 µM | 71.2 µM | 12.3 µM | 7.39 µM | 44.4 µM |  |  |  |  |  |  |  |  |
| CC(=O)OC1COC(Nc2nc(N)n(C)c(=O)c2N=O)C(OC(C)=O)C1OC(C)=O (stereo unspecified) | > 10 µM | > 10 µM | > 10 µM | > 10 µM |  | > 10 µM | > 10 µM | > 10 µM | > 10 µM | > 10 µM |  |  |  |  |  |  |  |  |
| Cc1sc2nc3n(c(=O)c2c1C)N=CN(c1ccc(F)cc1)C3 | > 100 µM | > 100 µM | > 100 µM | > 100 µM | > 100 µM | > 100 µM | > 100 µM | > 100 µM | > 100 µM | > 100 µM |  |  |  |  |  |  |  |  |
| O=C1CC2CCC(C1)S2=O (stereo unspecified) | > 100 µM | > 100 µM | > 100 µM | > 100 µM | > 100 µM | > 100 µM | > 100 µM | > 100 µM | > 100 µM | > 100 µM |  |  |  |  |  |  |  |  |
| Cc1ccc(-n2cc([Si](C)(C)C)nn2)s1 | > 100 µM | > 100 µM | > 100 µM | > 100 µM | > 100 µM | > 100 µM | > 100 µM | > 100 µM | > 100 µM | > 100 µM |  |  |  |  |  |  |  |  |
| c1ccc(CN2CCN3CCN(CC2)CCN(Cc2ccccc2)CC3)cc1 | 63.3 µM | > 88.3 µM | 18.8 µM | 18.4 µM | > 88.8 µM | 17.6 µM | 9.83 µM | 16 µM | 17.2 µM | 24.7 µM |  |  |  |  |  |  |  |  |
| CCC[C@@H]1C(=O)N=C(N)N1C(=O)OCc1ccccc1 | > 100 µM | > 100 µM | > 100 µM | > 100 µM | > 100 µM | > 100 µM | > 100 µM | > 100 µM | > 100 µM | > 100 µM |  |  |  |  |  |  |  |  |
| CC1(C)CCc2c(c(N=Nc3ccc(F)cc3)c3ccccc3c2O)O1 | > 100 µM | > 100 µM | > 100 µM | > 100 µM | > 100 µM | > 100 µM | > 100 µM | > 100 µM | 44.1 µM | > 100 µM |  |  |  |  |  |  |  |  |
| Oc1cc(Br)cc2cc(Cl)cnc12 | > 46.2 µM | 85.9 µM | 23.8 µM | > 100 µM | > 100 µM | 47.6 µM | 26 µM | 10.6 µM | > 40.9 µM | > 39.9 µM |  |  |  |  |  |  |  |  |
| C[N+](C)(CCNC(=O)c1cccc2cc3ccccc3nc12)Cc1ccc([N+](=O)[O-])s1 | > 25 µM | > 25 µM | > 25 µM | > 25 µM | > 25 µM | > 25 µM | > 25 µM | > 25 µM | > 25 µM | > 25 µM |  |  |  |  |  |  |  |  |
| COc1cc(CS(=O)c2ccc(O)cc2)cc(OC)c1OC (stereo unspecified) | > 100 µM | > 100 µM | > 100 µM | > 100 µM | > 100 µM | > 100 µM | > 100 µM | > 100 µM | > 100 µM | > 100 µM |  |  |  |  |  |  |  |  |
| CCOC(=O)[C@@H]1ON2OC(OC3CCCC3(c3ccccc3)c3ccccc3)C(OC(C)=O)[C@H]3OC(=O)[C@@H]1C32 (stereo partly specified) | > 100 µM | > 100 µM | 50.4 µM | > 100 µM | > 100 µM | > 100 µM | > 100 µM | 72.2 µM | > 100 µM | > 100 µM |  |  |  |  |  |  |  |  |
| C=C1C(=O)OC2CC3(C)OC3CC/C(C)=C/C(OC(C)=O)C12 (stereo unspecified) | 4.89 µM | 6.24 µM | 18 µM | 16.8 µM | 19.3 µM | 22.2 µM | 14.3 µM | 2.64 µM | 13.5 µM | 34.8 µM |  |  |  |  |  |  |  |  |
| CN1CCN(C2=CC(=O)c3c(O)ccc(O)c3C2=O)CC1 | 1.89 µM | 3.08 µM | 1.18 µM | 3 µM |  | 3.14 µM | 6.25 µM | 3.17 µM | 0.946 µM | 2.93 µM |  |  |  |  |  |  |  |  |
